For 1 compound, Activity and IC50 results are on record in ChEMBL document CHEMBL1145337, “Antitumor agents. 5. synthesis, structure-activity relationships, and biological evaluation of dimethyl-5H-pyridophenoxazin-5-ones, tetrahydro-5h-benzopyridophenoxazin-5-ones, and 5h-benzopyridophenoxazin-5-ones with potent antiproliferative activity” (J Med Chem, 2006).

Test [1] has as its target T1, DNA topoisomerase 1 (Homo sapiens) (UniProt P11387).
T1 sequence (whole entry): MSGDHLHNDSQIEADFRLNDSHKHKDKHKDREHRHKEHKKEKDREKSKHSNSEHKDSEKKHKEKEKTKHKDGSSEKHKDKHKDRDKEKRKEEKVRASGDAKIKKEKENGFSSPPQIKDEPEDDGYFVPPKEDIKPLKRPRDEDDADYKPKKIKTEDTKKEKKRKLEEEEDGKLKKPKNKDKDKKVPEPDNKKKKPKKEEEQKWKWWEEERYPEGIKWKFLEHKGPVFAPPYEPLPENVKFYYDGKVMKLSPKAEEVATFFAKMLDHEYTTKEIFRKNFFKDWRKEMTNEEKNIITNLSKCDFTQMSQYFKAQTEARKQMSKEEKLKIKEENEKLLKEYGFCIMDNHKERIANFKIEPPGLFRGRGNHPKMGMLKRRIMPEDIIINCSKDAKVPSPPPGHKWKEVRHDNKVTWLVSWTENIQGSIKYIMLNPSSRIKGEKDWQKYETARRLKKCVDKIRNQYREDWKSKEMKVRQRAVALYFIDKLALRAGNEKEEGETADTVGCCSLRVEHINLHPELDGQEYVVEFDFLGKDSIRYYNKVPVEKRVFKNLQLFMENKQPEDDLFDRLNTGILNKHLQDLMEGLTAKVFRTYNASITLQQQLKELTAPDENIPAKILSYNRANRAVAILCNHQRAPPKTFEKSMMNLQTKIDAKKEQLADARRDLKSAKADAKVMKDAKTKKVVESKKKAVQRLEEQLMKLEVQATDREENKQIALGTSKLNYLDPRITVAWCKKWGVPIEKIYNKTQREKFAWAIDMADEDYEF
Description: Unwinding of DNA mediated by topoisomerase 1 at 20 uM.

In another test the test system is MOLT-4. Description: Antiproliferative activity against human MOLT4 cell line by MTT assay. The test is classed as functional, cell-based. For orientation: Tetrazolium assays rely on reduction of a dye to a coloured formazan, in cell work by metabolically active cells.
The test system of a further test is MT4. Description: Antiproliferative activity against human MT4 cell line by MTT assay. The test is classed as functional, cell-based.
In the next test the test system is CCRF-CEM. Put plainly: Antiproliferative activity against human CCRF-CEM cell line by MTT assay. The test is classed as functional, cell-based.
A further test concerns HeLa. Description: Antiproliferative activity against human HeLa cells by MTT assay. The test is classed as functional, cell-based.
Another test has as its system 5637. Put plainly: Antiproliferative activity against human 5637 cell line by MTT assay. The test is classed as functional, cell-based.
Another test relates to CCRF-SB. Description: Antiproliferative activity against human CCRF-SB cell line by MTT assay. The test is classed as functional, cell-based.
For another test, the system named is C8166. Description: Antiproliferative activity against human C8166 cell line by MTT assay. The test is classed as functional, cell-based.
The test system of test [2] is HT-29. Description: Antiproliferative activity against human HT29 cell line by MTT assay. The test is classed as functional, cell-based.
Another test relates to ACHN. Description: Antiproliferative activity against human ACHN cell line by MTT assay. The test is classed as functional, cell-based.
In test [3] the test system is HT-29. Description: Cell cycle arrest in HT29 cells by accumulation at G2/M phase by flow cytometry at […]. The test is classed as functional, Homo sapiens.
Test [4] concerns the target T1, DNA topoisomerase 1 (Homo sapiens). Put plainly: Promotion of human topoisomerase 1-mediated DNA cleavage.
The next test concerns HEp-2. Description: Antiproliferative activity against human Hep2 cell line by MTT assay. The test is classed as functional, cell-based.
In a further test the test system is WIL2-NS. Description: Antiproliferative activity against human Wil2-NS cells by MTT assay. The test is classed as functional, cell-based.
Test [5] deals with DNA topoisomerase II (Homo sapiens) (UniProt P11388+Q02880). Put plainly: Promotion of human topoisomerase 2-mediated DNA cleavage. The test is classed as protein assay.
Test [6] relates to HT-29. Description: Cell cycle arrest in HT29 cells by accumulation at G0/G1 phase by flow cytometry at […]. The test is classed as functional, Homo sapiens. In general terms: A flow cytometer gives signals particle by particle.
The test system of another test is KB. Put plainly: Antiproliferative activity against human KB cell line by MTT assay. The test is classed as functional, cell-based.
Test [7] deals with HT-29. Put plainly: Cell cycle arrest in HT29 cells by accumulation at S phase by flow cytometry at […]. The test is classed as functional, Homo sapiens.
Another test deals with G-361. Description: Antiproliferative activity against human G361 cell line by MTT assay. The test is classed as functional, cell-based.

Activity calls are given as the source filed them. The calls are words filed in the database; no cut-off is given here.

As for `O=c1cc2oc3ccc4ccccc4c3nc-2c2cccnc12`, the result in [1] was Active. The IC50 (usually the concentration that gives 50% inhibition) is 40 nM in the test with MOLT-4; 10 nM in the test on MT4; 1 nM in the test with CCRF-CEM; 1 nM with HeLa; 10 nM in the test with 5637; 10 nM in the test on CCRF-SB. In addition, the IC50 amounted to 1 nM with C8166; 2 nM with HT-29 [2]; 10 nM in the test with ACHN; 40 nM in the test with HEp-2; 5 nM in the test with WIL2-NS; 10 nM with KB. Further, the IC50 with G-361 was 20 nM. The values for the Activity in the test on HT-29 [3], in the test on HT-29 [6] and in the test with HT-29 [7] were 48.66%, 27.93% and 23.42%, respectively. The outcome in [4] and in test [5] was inactive.
